Series [1] relates to 3D7 ring-stage parasites. The following applies: known fast, medium, slow acting inhibitors; ref Sanz et al., 2012; cited from earlier work.
In the next series the target is recombinant PfMAGL (Plasmodium falciparum, UniProt Q8IJ22). Format: biochemical, P. falciparum.
The subject of series [2] is synchronized ring stage W2 parasites. Put plainly: 72-hour parasite growth. It is filed as cell-based, P. falciparum. The following applies: for EC50: Plasmodium falciparum.
Series [3] concerns W2 ring stage cultures. Put plainly: Stage specific killing assay. It is filed as cell-based, P. falciparum. The following applies: 10 μM, ring stage W2 parasites, smears every twelve hours.
For series [4], the system named is global palmitoylation in infected red blood cells. Description: Global palmitoylation. Format: cell-based, P. falciparum. The following applies: after 16 hours 17-ODYA incubation.
The target of another series is T1, hMAGL (Homo sapiens, UniProt Q99685).
T1 sequence (Q99685 1-303): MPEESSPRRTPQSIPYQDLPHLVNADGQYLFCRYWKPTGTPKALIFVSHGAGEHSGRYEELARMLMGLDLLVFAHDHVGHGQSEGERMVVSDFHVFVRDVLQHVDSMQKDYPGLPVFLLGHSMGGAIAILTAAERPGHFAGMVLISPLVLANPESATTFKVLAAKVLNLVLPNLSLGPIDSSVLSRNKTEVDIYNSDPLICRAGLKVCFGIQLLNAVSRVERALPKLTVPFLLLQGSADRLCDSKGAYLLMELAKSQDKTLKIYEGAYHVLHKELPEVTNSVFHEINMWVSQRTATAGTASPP
Description: hMAGL inhibition assay. It is filed as biochemical.

In series [5] the test system is 3D7 ring-stage parasites. Description: P. falciparum rate of kill assay. It is filed as cell-based. The following applies: compared with chloroquine, pyrimethamine, atovaquone.
Series [6] deals with Human Foreskin Fibroblasts. Put plainly: Human cell cytotoxicity assay. It is filed as cell-based. The following applies: at concentrations up to 50 μM, 72 h, HFF.
Series [7] deals with synchronized W2 ring stage parasites. Put plainly: Lipidomic analysis of treated parasites. It is filed as cell-based, P. falciparum. The conditions noted are these: 900 nM, 24 hours versus DMSO (Figure 5B).
The test system of the next series is parasite food vacuole. Description: Food vacuole visualization. It is filed as cell-based, P. falciparum. The conditions noted are these: 5 μM for 16 hrs; reduction not significant.
In series [8] the test system is SalA resistant Dd2-Polδ lines (PRELI domain-containing protein mutants). Put plainly: In vitro drug susceptibility assay, SalA selected PRELI mutant lines. It is filed as cell-based, P. falciparum.
The test system of series [9] is abH112 cKD and control NF54 parasites. Put plainly: Susceptibility of abH112 cKD and NF54 parasites +/- aTC. It is filed as cell-based, P. falciparum. The following applies: presence and absence of aTC.
The test system of series [10] is W2 ring stage cultures. The following applies: ref Yoo et al., 2020; cited from earlier work.
The mark [11] stands for this setting: 72 h, read-out: EC50 parasite growth.

The structures appear in SMILES notation. “Also recorded” adds a separate entry of the source. Where two headings read alike, the source gives them in different places.

recombinant PfMAGL, sequence (Q8IJ22 1-359): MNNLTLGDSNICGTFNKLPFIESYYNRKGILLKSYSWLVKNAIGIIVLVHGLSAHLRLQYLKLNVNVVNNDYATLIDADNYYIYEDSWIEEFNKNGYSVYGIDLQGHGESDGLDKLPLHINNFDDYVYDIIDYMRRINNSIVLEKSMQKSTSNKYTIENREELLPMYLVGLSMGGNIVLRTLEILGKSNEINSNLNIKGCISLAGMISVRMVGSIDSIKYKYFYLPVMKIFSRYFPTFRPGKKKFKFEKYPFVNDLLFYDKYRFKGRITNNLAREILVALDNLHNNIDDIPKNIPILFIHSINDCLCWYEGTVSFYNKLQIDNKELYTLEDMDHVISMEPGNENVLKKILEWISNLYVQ

Regarding `CCN(CC)CCCC(C)Nc1ccnc2cc(Cl)ccc12` (stereo not drawn) [chloroquine], the “rate of kill class of known inhibitors” value in the series on 3D7 ring-stage parasites [1] is on record as “fast”.

As to `CCCCCCCCCCCCCCCP(=O)(OCC)Oc1c(F)cccc1F` (stereo not drawn) [Compound 21], the “potency against recombinant PfMAGL (in words)” value on recombinant PfMAGL is given as “picomolar inhibitors; also recorded: pM inhibitors”. Further, the parasite killing result in series [2] (at concentrations up to 20 μM, 72 hours, W2) was “no killing”. Also, in the series with W2 ring stage cultures [3], the “blood stage where growth was arrested” value is listed as “progressed through the blood stage lifecycle”. Also, the “changes in global palmitoylation” value in series [4] is “did not observe any changes in global palmitoylation”.

`C#CCCCCP(=O)(OCC)Oc1ccc(S(=O)(=O)F)cc1` (stereo not drawn) [Compound 2]: the “potency against hMAGL (in words)” value at hMAGL is reported as “highest potency”. Further, in series [2] (setting [11]), the EC50 (commonly the concentration at which the effect is half-maximal) stood at 1600 nM.

Turning to `CCCCCCCCCCCCCCC(Br)C(=O)O` (stereo not drawn) [Compound 2-BP, 2-bromopalmitate, reference compound], the “changes in global palmitoylation” value in series [4] is on record as “changes in patterns of palmitoylation”.

Consider `CCCCCCCCCCCCCCCP(=O)(OCC)Oc1cc(F)cc(F)c1` (stereo not drawn) [Compound 22], for which the “potency against recombinant PfMAGL (in words)” value on recombinant PfMAGL is on record as “picomolar inhibitors; also recorded: pM inhibitors”. In series [2] (5 µM compound, 30 µM palmitate, oleate or both, 72 hours), the “rescue of killing phenotype by palmitate and oleate supplementation” value is recorded as “did not rescue”. In series [2] (1 hour treatment followed by washout), the “drop in potency, 1 hour pulse compared to continuous treatment” value is given as “ten-fold drop in potency”. Besides, the EC50 in [2] (setting [11]) was found to be 188 nM; in series [2] (read-out: EC50 after 1 hour treatment and washout) it was 1330 nM. For the same compound, in the series on 3D7 ring-stage parasites [5], the “rate of kill (in words)” value is on record as “faster than pyrimethamine, but not as fast as chloroquine”. Besides, the “impact on mammalian cell viability” value in series [6] is recorded as “no impact on mammalian cell viability”. The “blood stage where growth was arrested” value in the series on W2 ring stage cultures [3] is “arrested in growth at 24 hours”. Moreover, in series [7], the “changes in lipid classes” value is “downregulation of both ceramides and diacylglycerides”. In the series with parasite food vacuole, the food vacuole size result is “small reduction in food vacuole size”. Further, the “increase in EC50, PRELI mutant parasites compared to Dd2-Polδ parental line” value in series [8] is on record as 7–10 fold. The “effect of abH112 knockdown on parasite susceptibility to compound” value in [9] was “did not affect parasite susceptibility”. In addition, in [4], the “changes in global palmitoylation” value was “did not observe any changes in global palmitoylation”.

For the compound `CCCCCCCCCCC[C@@H](C[C@@H]1OC(=O)[C@H]1CCCCCC)OC(=O)[C@H](CC(C)C)NC=O` [Orlistat], in the series on W2 ring stage cultures [10], the “blood stage where progression is blocked” value was “block progression at the late schizont stage”.

As for `O=C1C(O)=C([C@H]2CC[C@H](c3ccc(Cl)cc3)CC2)C(=O)c2ccccc21` [atovaquone], in the series on 3D7 ring-stage parasites [1], the “rate of kill class of known inhibitors” value was “slow”.

With `CCc1nc(N)nc(N)c1-c1ccc(Cl)cc1` [pyrimethamine], the “rate of kill class of known inhibitors” value in the series with 3D7 ring-stage parasites [1] is on record as “medium”.

These data come from PMC10802587 (bioRxiv, 2024).
